Measurements taken from patent publication US10004702B2, “Linear guanidine derivatives, methods of preparation and uses thereof” (LEAD DISCOVERY SIENA S.R.L., priority 2014, dated 2018).
Converted amounts (≈) assume the structure as drawn.

Assays:
[1] = system: Enterococcus faecalis ATCC 19433; experiment: Bactericidal activity (MBC); format: cell-based; details: ATCC19433
[2] = system: Acinetobacter baumannii AC-54/97 (IMP-2); experiment: Bactericidal activity (MBC); format: cell-based
[3] = system: Klebsiella pneumoniae 167R; experiment: MIC against resistant clinical isolates; format: cell-based; details: resistance profile PDR
Procedure: (§1) Bacterial strains were obtained from the ATCC or CCUG culture collections or present in the authors' collection of clinical isolates. Compounds were re-suspended in dimethyl sulfoxyde (DMSO) at a final concentration of 10 mg/ml and subsequently diluted in the culture medium. The minimum inhibitory concentrations (MICs) of the compounds of the invention were determined using the microdilution broth method using Mueller-Hinton broth as recommended by the Clinical Laboratory Standards Institute (CLSI [11]). Bacterial inoculum was 5×10^4 CFU/well. MICs were recorded after 18-24 hours incubation at 35-37° C.
(§2) The Antibacterial activity of compound 28 was also tested on a panel of Gram-negative and Gram-positive clinical isolates, showing various antimicrobial susceptibility profiles (Table 4). The class of drugs for which the isolate was resistant to is indicated in column 2 (PEN, penicillins; ES-CEPH, expanded-spectrum cephalosporins; CARB, carbapenems; AZT; aztreonam; AG, aminoglycosides; FQ, fluoroquinolones; SXT, trimethoprim/sulfamethoxazole; FOS, fosfomycin; GLY, glycopeptides; LNZ, linezolid; COL-R, colistin resistant; COL-S colistin sensitive; PDR, poly-drug resistant).

[4] = system: Klebsiella pneumoniae 207-1; experiment: MIC against resistant clinical isolates; format: cell-based; details: 2071, COL-S
Procedure: as §1, §2

[5] = system: Klebsiella pneumoniae 207-2; experiment: MIC against resistant clinical isolates; format: cell-based; details: 2072, COL-R
Procedure: as §1, §2

[6] = system: Klebsiella pneumoniae 7023; experiment: MIC against resistant clinical isolates; format: cell-based; details: resistance profile PEN, ES-CEPH, CARB, AG, FQ, SXT
Procedure: as §1, §2

Klebsiella pneumoniae B1 = experiment: MIC against resistant clinical isolates; format: cell-based; details: COL-S
Procedure: as §1, §2

Klebsiella pneumoniae B2 = experiment: MIC against resistant clinical isolates; format: cell-based; details: COL-R
Procedure: as §1, §2

[7] = system: Klebsiella pneumoniae BO1; experiment: MIC against resistant clinical isolates; format: cell-based; details: COL-S
Procedure: as §1, §2

[8] = system: Klebsiella pneumoniae BO4; experiment: MIC against resistant clinical isolates; format: cell-based; details: COL-R
Procedure: as §1, §2

[9] = system: Klebsiella pneumoniae KP0787; experiment: MIC against resistant clinical isolates; format: cell-based; details: resistance profile PDR
Procedure: as §1, §2

[10] = system: Pseudomonas aeruginosa 101/1477; experiment: MIC against resistant clinical isolates; format: cell-based; details: resistance profile PEN, ES-CEPH, CARB, AG
Procedure: as §1, §2

[11] = system: Pseudomonas aeruginosa 14X-34; experiment: MIC against resistant clinical isolates; format: cell-based; details: 14X34, resistance profile PDR
Procedure: as §1, §2

[12] = system: Pseudomonas aeruginosa VR143/97; experiment: MIC against resistant clinical isolates; format: cell-based; details: resistance profile PEN, ES-CEPH, CARB, MON, AG, FQ
Procedure: as §1, §2

[13] = system: Staphylococcus aureus ATCC 43300 (MRSA); experiment: MIC against resistant clinical isolates; format: cell-based; details: resistance profile PEN
Procedure: as §1, §2

[14] = system: Staphylococcus aureus ATCC 700699 (VanA); experiment: MIC against resistant clinical isolates; format: cell-based; details: ATCC700699, resistance profile GLY
Procedure: as §1, §2

[15] = system: Staphylococcus haemolyticus SI-6/2011; experiment: MIC against resistant clinical isolates; format: cell-based; details: SI6/2011, resistance profile AG
Procedure: as §1, §2

[16] = system: Staphylococcus warneri SI-5/2011; experiment: MIC against resistant clinical isolates; format: cell-based; details: SI5/2011, resistance profile PEN, AG
Procedure: as §1, §2

[17] = Parallel Artificial Membrane Permeability Assay (PAMPA); format: in vitro ADME; details: pH 7.4, 5 h at room temperature, read-out: apparent permeability (Papp)
Procedure: Donor solution (0.5 mM) was prepared by diluting 1 mM dimethylsulfoxide (DMSO) compound stock solution using tris-HCl buffer (50 mM) at pH 7.4. Filters were coated with 5 μL of a 1% (w/v) dodecane solution of phosphatidylcholine. Donor solution (150 μL) was added to each well of the filter plate. To each well of the acceptor plate were added 300 μL of solution (50% DMSO in phosphate buffer). Compound 28 was tested in three different plates on different days. The sandwich was incubated for 5 h at room temperature under gentle shaking. After the incubation time, the plates were separated, and samples were taken from both receiver and donor sides and analyzed using LC with UV detection at 210 and 254 nm. LC analysis were performed with a Perkin-Elmer (series 200) instrument equipped with an UV detector (Perkin-Elmer […], UV/vis Detector). Chromatographic separation were conducted using a Polaris C18 column (150-4.6 mm, 5 μm particle size) at a flow rate of 0.8 mL min-1 with a mobile phase composed of 50% CH3CN/50% H2O-formic acid 0.1%. Permeability (Papp) was calculated according to equation 1, obtained from Sugano [12] and Wohnsland [13] equation with some modification to obtain values in cm/s. […]

For `N=C(N)NCCCCCCCCN(CCCCCCCCNC(=N)NCC1CC1)C(=O)N(CCCCCCCCNC(=N)N)CCCCCCCCNC(=N)NCC1CC1` [Compound 28, 1,3-bis(8-(3-(cyclopropylmethyl)guanidino)octyl)-1,3-bis(8-guanidinooctyl)urea], which MBC [1] is on record?
Its MBC is < 0.125 µg/mL.

What about the MBC [2] of the same molecule?
Its MBC is 2 µg/mL (≈ 2.37 µM).

What about the MIC [3] of the same molecule?
The MIC was 4 µg/mL (≈ 4.73 µM).

And the MIC [4]?
The MIC was 4 µg/mL (≈ 4.73 µM).

What about the MIC [5] of the same molecule?
The MIC was 8 µg/mL (≈ 9.46 µM).

What about the MIC [6] of the same molecule?
Its MIC is 2 µg/mL (≈ 2.37 µM).

What about the MIC (Klebsiella pneumoniae B1) of the same molecule?
The MIC was 4 µg/mL (≈ 4.73 µM).

And the MIC (Klebsiella pneumoniae B2)?
The MIC was 4 µg/mL (≈ 4.73 µM).

What about the MIC [7] of the same molecule?
Its MIC is 4 µg/mL (≈ 4.73 µM).

What about the MIC [8] of the same molecule?
Its MIC is 8 µg/mL (≈ 9.46 µM).

And the MIC [9]?
The MIC was 1 µg/mL (≈ 1.18 µM).

And the MIC [10]?
The MIC was 8 µg/mL (≈ 9.46 µM).

What about the MIC [11] of the same molecule?
The MIC was 8 µg/mL (≈ 9.46 µM).

And the MIC [12]?
Its MIC is 8 µg/mL (≈ 9.46 µM).

And the MIC [13]?
The MIC was 4 µg/mL (≈ 4.73 µM).

What about the MIC [14] of the same molecule?
The MIC was 4 µg/mL (≈ 4.73 µM).

What about the MIC [15] of the same molecule?
Its MIC is 2 µg/mL (≈ 2.37 µM).

What about the MIC [16] of the same molecule?
Its MIC is 2 µg/mL (≈ 2.37 µM).

And the Papp at 5 h, 0.5 mM [17]?
Its Papp at 5 h, 0.5 mM is 1.6 ×10⁻⁶ cm/s.
